According to PubChem BioAssay (NCI):
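Briefly, cells in 96-well plates were exposed to five compound concentrations for 48 h, and endpoints were estimated by linear interpolation. TGI: total growth inhibition.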

Experiments:
Test in all cases: growth of human tumour cells (NCI), 48 h
MOLT-4 leukemia = tested on: MOLT-4 leukemia
KM12 colon = tested on: KM12 colon
HT29 colon = tested on: HT29 colon
SN12C renal = tested on: SN12C renal
MCF7 breast = tested on: MCF7 breast
NCI-H522 lung = tested on: NCI-H522 lung
SF-295 CNS = tested on: SF-295 CNS
PC-3 prostate = tested on: PC-3 prostate
COLO 205 colon = tested on: COLO 205 colon
HCT-116 colon = tested on: HCT-116 colon

SMILES	TGI (MOLT-4 leukemia) [µM]	TGI (KM12 colon) [µM]	TGI (HT29 colon) [µM]	TGI (SN12C renal) [µM]	TGI (MCF7 breast) [µM]	TGI (NCI-H522 lung) [µM]	TGI (SF-295 CNS) [µM]	TGI (PC-3 prostate) [µM]	TGI (COLO 205 colon) [µM]	TGI (HCT-116 colon) [µM]
CC(=O)O[C@H]1C[C@H]2[C@@H]([C@H](OC(C)=O)C[C@@H]3CC4(CC[C@@]32C)OOC2(CCCCC2)OO4)[C@@H]2CC[C@H]([C@H](C)CCC(=O)O)[C@@]12C	51.6	17.1	25.3	20.7	22.1	9.36	19.1	22.2	14	19.2
O=C(/C=C/c1ccc(Cl)cc1)c1ccc(Cl)s1	> 100	> 100	> 100	> 100	44.6	> 100	> 100	> 100	> 100	22.4
Nc1nc2c(c(=O)[nH]1)NC(CCNc1ccc(C(=O)O)cc1)CN2 (stereo not given)	> 100	> 100	> 100	> 100	> 100	> 100	> 100	> 100	> 100	> 100
CN(CCCNC(=O)c1c2ccc3ccccc3c2nn1C)CCCNC(=O)c1c2ccc3ccccc3c2nn1C	24	23.7	6.93	25.6	15.6	19.7	9.77	27.5	3.54	28
O=C1CC(=O)NC(=NN2C(=O)/C(=C/c3ccc(Cl)cc3)N=C2c2ccccc2)N1	22.7	27.6	31.5	32.3	53.7	23.5	33	28.2	31.5	30.7
CC1(CCCCO)C=CC(S(=O)(=O)c2ccccc2)CC1 (stereo not given)	14.9	8.45	5.91	23.6	11.3	10.4	24.4	15.1	14.4	12.6
CO[C@]12C[C@@H](CNC(=O)c3cc(Br)c[nH]3)O[C@H]1NC(=O)N2	> 100	> 100	> 100	> 100	> 100	> 100	> 100	> 100	> 100	> 100
CCOC(=O)C1=C(C)N(CC(C)C)C2(O)C(OC)CC(=O)C3C(=O)N(c4ccccc4)C(=O)C132 (stereo not given)	75.6	90	57.1	> 100	> 100	34.5	> 100	> 100	> 100	> 100
CCOC(=O)[C@@H]1C[C@@H]1c1ccc(O)c(O)c1	22.5	82.2	> 100	> 100	35.2	26.5	> 100	> 100	> 100	32.7
Nc1ncnc2c1N=C(c1ccccc1)CC(c1ccccc1)N2 (stereo not given)	> 100	> 100	> 100	> 100	> 100	> 100	> 100	> 100	> 100	> 100
Brc1ccc(-c2nc(-c3ccc(Br)cc3)n(-c3ccccc3)n2)cc1	> 100	> 100	> 100	> 100	> 100	> 100	> 100	> 100	57.5	> 100
CC(N)=O.[Cl][Pt][Cl].[NH-]c1ccn(C2OC(CO)C(O)C2O)c(=O)n1 (stereo not given)	> 100	> 100	> 100	> 100	> 100	> 100	> 100	> 100	> 100	> 100
Cc1cc(NS(=O)(=O)c2ccc(NC(=O)c3ccc4nc5ccccc5c(Nc5ccc(S(=O)(=O)Nc6cc(C)on6)cc5)c4c3)cc2)no1	> 50	> 50	> 50	> 50	> 50	> 50	> 50	> 50	> 50	> 50
Clc1cccc2[nH]ncc12	> 100	> 100	> 100	> 100	> 100	> 100	> 100	> 100	> 100	> 100
Cc1cc(/N=C/c2ccc(Cl)cc2)n(-c2ccccc2)n1	> 100	> 100	> 100	> 100	> 100	> 100	> 100	> 100	> 100	> 100
CCCCOc1ccc(S(=O)(=O)/N=C(\N)Nc2ccc(Cl)cc2)cc1	29.9	39.6	35.2	30.1	26.9	23	36.1	31	> 100	30.3
CCOP(=O)(/C=C\n1ccc(=O)[nH]c1=O)OCC	> 100	> 100	> 100	> 100	> 100	> 100	> 100	> 100	> 100	> 100
